In the NIST ThermoML archive (doi:10.1021/je200213h):

Experiment: xn = mol fraction of the nth substance listed
Conditions: 101 kPa, Liquid, Capillary tube (Ostwald / Ubbelohde) method

CC(C)CCl [1-chloro-2-methylpropane] + CCCCCC
kinematic viscosity [m2/s]
Conditions | 283.15 K | 298.15 K | 313.15 K
x2 = 0.0512 | 5.712e-07 | 4.863e-07 | 4.32e-07
x2 = 0.0999 | 5.631e-07 | 4.817e-07 | 4.282e-07
x2 = 0.2003 | 5.468e-07 | 4.711e-07 | 4.196e-07
x2 = 0.2993 | 5.339e-07 | 4.633e-07 | 4.128e-07
x2 = 0.4005 | 5.239e-07 | 4.566e-07 | 4.077e-07
x2 = 0.4977 | 5.171e-07 | 4.517e-07 | 4.041e-07
x2 = 0.598 | 5.12e-07 | 4.478e-07 | 4.017e-07
x2 = 0.6993 | 5.089e-07 | 4.462e-07 | 4.01e-07
x2 = 0.799 | 5.077e-07 | 4.455e-07 | 4.002e-07
x2 = 0.8967 | 5.092e-07 | 4.457e-07 | 4.006e-07
x2 = 0.9472 | 5.103e-07 | 4.474e-07 | 4.023e-07

CCC(C)(C)C [2,2-dimethylbutane] + CCCCCl
kinematic viscosity [m2/s]
Conditions | 283.15 K | 298.15 K | 313.15 K
x1 = 0.0524 | 5.594e-07 | 4.802e-07 | 4.231e-07
x1 = 0.101 | 5.603e-07 | 4.809e-07 | 4.239e-07
x1 = 0.1995 | 5.627e-07 | 4.822e-07 | 4.253e-07
x1 = 0.3081 | 5.663e-07 | 4.846e-07 | 4.275e-07
x1 = 0.3985 | 5.705e-07 | 4.867e-07 | 4.294e-07
x1 = 0.499 | 5.76e-07 | 4.898e-07 | 4.322e-07
x1 = 0.5984 | 5.822e-07 | 4.943e-07 | 4.362e-07
x1 = 0.7015 | 5.899e-07 | 5e-07 | 4.409e-07
x1 = 0.7986 | 5.992e-07 | 5.063e-07 | 4.463e-07
x1 = 0.9002 | 6.098e-07 | 5.133e-07 | 4.52e-07
x1 = 0.9487 | 6.16e-07 | 5.17e-07 | 4.55e-07
